Source: patent publication US10954300B2, “Use of pentoxifylline with immune checkpoint-blockade therapies for the treatment of melanoma” (THE TRUSTEES OF COLUMBIA UNIVERSITY IN THE CITY OF NEW YORK, priority 2015, dated 2021)

Columns and labels:
[1] = molecular target: T1, c-Rel (Mus musculus, UniProt P15307); test: Western blot on PTXF-treated Treg cells; assay type: cell-based, mice; conditions: Treg cells stimulated with anti-CD3/CD28 and mIL-2, 500 μg/mL PTXF
T1 construct: CD4+GFP+ Treg cells were sorted form Foxp3eGFP spleens; endogenous in cells; host or cells: primary splenic CD4+Foxp3+ Treg cells from reporter mice
Description: Total cells suspensions were then activated with 5 μg/mL plate-coated anti-mCD3, 1 μg/ml soluble anti-mCD28 (BioLegend) and 10 ng/mL mIL-2, overnight at 37 C. Treg cells were then washed for further use.
Total lysates were extracted using RIPA buffer and protease inhibitors with SDS. 20 μg (micrograms) protein extracts were ran in polyacrylamide gels and transferred onto PVDF membranes. Membranes were incubated with anti-p65, c-Rel (Santa-Cruz) and GAPDH (Fitzgerald) Abs, followed HRP-coupled secondary Abs.

[2] = test system: p65; test: Western blot on PTXF-treated Treg cells; assay type: cell-based, mice; conditions: Treg cells stimulated with anti-CD3/CD28 and mIL-2, 500 μg/mL PTXF
Description: Total cells suspensions were then activated with 5 μg/mL plate-coated anti-mCD3, 1 μg/ml soluble anti-mCD28 (BioLegend) and 10 ng/mL mIL-2, overnight at 37 C. Treg cells were then washed for further use. Total lysates were extracted using RIPA buffer and protease inhibitors with SDS. 20 μg (micrograms) protein extracts were ran in polyacrylamide gels and transferred onto PVDF membranes. Membranes were incubated with anti-p65, c-Rel (Santa-Cruz) and GAPDH (Fitzgerald) Abs, followed HRP-coupled secondary Abs.

[3] = test system: Treg cells; test: Flow cytometry of PTXF-treated Treg cells; assay type: cell-based, mice; conditions: 16 h stimulation, 500 μg/mL PTXF
Description: Cells were isolated from thymus, spleen and lymph nodes by mechanical desegregation in PBS+ FBS 3%. For tumor-infiltrating cell suspensions, total tumors were digested in DMEM (Gibco) supplemented with 1 mg/ml collagenase type IV (Sigma) and 1 mg/ml DNase I (Sigma) for 40 minutes at 37° C., followed by centrifugation in a 36% Percoll solution. For intracellular cytokines analyses, cell suspensions were incubated 3 hours with PMA (Sigma, 50 ng/mL), ionoymycin (Sigma, 1 μg/mL) in the presence of Golgi Plug (BD), or incubated 4 hours with mitomycin C-treated WT splenocytes loaded with […] gp100/pmel 17 peptide (Neo Biolab) in the presence of Golgi Plug. Cells were then stained with mAbs purchased by eBioscience or Tonbo Bioscience. Foxp3 and cytokine staining were performed using the eBioscience kit and protocol. Cells were acquired on a LSR II (BD Biosciences) and analyzed with FlowJo (Tree Star) software. […] Total cells suspensions were then activated with 5 μg/mL plate-coated anti-mCD3, 1 μg/ml soluble anti-mCD28 (BioLegend) and 10 ng/mL mIL-2, overnight at 37 C. Treg cells were then washed for further use.

[4] = test system: Treg cells; test: RNA-Seq of PTXF-treated Treg cells; assay type: cell-based, mice; conditions: 500 μg/mL PTXF
Description: Total cells suspensions were then activated with 5 μg/mL plate-coated anti-mCD3, 1 μg/ml soluble anti-mCD28 (BioLegend) and 10 ng/mL mIL-2, overnight at 37 C. Treg cells were then washed for further use. Total RNA was extracted using a Qiagen Rneasy Mini Kit with DNase treatment. For qPCR, RNA was reverse transcribed by Superscript III (Invitrogen). cDNAs were used for PCR with SYBR Green reagents (Quanta Biosciences, Gaithersburg, Md.) on a C1000 Touch thermal cycler (Bio Rad, Hercules, Calif.). The data was normalized to GAPDH expression. Primers sequences can be sent under request. For RNA-sequencing, libraries were prepared using an Illumina TruSeq Library Kit and sequenced by an Illumina 2500 instrument. Upon sequencing, raw FASTQ files were aligned on the mm10 genome using STAR aligner with default parameters (Dobin et al., 2013). Aligned fragments were then counted and annotated using Rsamtools v3.2 and the TxDb.Mmusculus.UCSC.mm10.knownGene' version 3.1.2 transcript database respectively. Normalized FPKM (fragments per kilobase per million mapped reads) were obtained using the robust FPKM estimate function of DeSeq2 v1.10.1 after removing the batch effect using the ComBat function of the sva package v3.18.0. Differentially expressed genes were obtained using the DESeqResults function of the same package. All p-values were adjusted for multiple comparison using the Benjamini & Hochberg FDR algorithm. For gene set enrichment analysis, the GSEA software was used, and Molecular Signature Database (MSigDB) including the ImmuneSigDB (C7 collection)(Godec et al., 2016; Subramanian et al., 2005).

[5] = test system: B16F1 melanoma cells; test: Flow cytometry of tumor infiltrates (TILs) at D16, early PTXF treatment; assay type: in vivo, C57Bl/6J mice
Description: Cells were isolated from thymus, spleen and lymph nodes by mechanical desegregation in PBS+ FBS 3%. For tumor-infiltrating cell suspensions, total tumors were digested in DMEM (Gibco) supplemented with 1 mg/ml collagenase type IV (Sigma) and 1 mg/ml DNase I (Sigma) for 40 minutes at 37° C., followed by centrifugation in a 36% Percoll solution. For intracellular cytokines analyses, cell suspensions were incubated 3 hours with PMA (Sigma, 50 ng/mL), ionoymycin (Sigma, 1 μg/mL) in the presence of Golgi Plug (BD), or incubated 4 hours with mitomycin C-treated WT splenocytes loaded with 10 mg/mL gp100/pmel 17 peptide (Neo Biolab) in the presence of Golgi Plug. Cells were then stained with mAbs purchased by eBioscience or Tonbo Bioscience. Foxp3 and cytokine staining were performed using the eBioscience kit and protocol. Cells were acquired on a LSR II (BD Biosciences) and analyzed with FlowJo (Tree Star) software.

[6] = test system: B16F1 melanoma cells; test: qPCR on total tumor RNA at D16, early PTXF treatment; assay type: in vivo, C57Bl/6J mice
[7] = test system: B16F1 cells; test: B16F1 tumor growth in immunodeficient mice; assay type: in vivo, RAG1−/− mice; conditions: PTXF vs PBS
Description: 5×10^4 B16F1 or 5×10^5 CT-26 or BRAF^[…]^-/- cells diluted in sterile PBS1X were injected subcutaneously into the shaved flank of each mouse. For metastasis experiments, 2.5×10^4 B16F10 cells were injected intravenously in the tail vein. […] Anti-PD-1 (RMP1-14), anti-PD-L1 (10F.9G2) and anti-CD8 (YTS.169-4) mAbs were obtained from BioXCell. Rat IgG isotype control was from R&D Systems.

[8] = test system: p65; conditions: cited from earlier work

T1 sequence (P15307 whole entry): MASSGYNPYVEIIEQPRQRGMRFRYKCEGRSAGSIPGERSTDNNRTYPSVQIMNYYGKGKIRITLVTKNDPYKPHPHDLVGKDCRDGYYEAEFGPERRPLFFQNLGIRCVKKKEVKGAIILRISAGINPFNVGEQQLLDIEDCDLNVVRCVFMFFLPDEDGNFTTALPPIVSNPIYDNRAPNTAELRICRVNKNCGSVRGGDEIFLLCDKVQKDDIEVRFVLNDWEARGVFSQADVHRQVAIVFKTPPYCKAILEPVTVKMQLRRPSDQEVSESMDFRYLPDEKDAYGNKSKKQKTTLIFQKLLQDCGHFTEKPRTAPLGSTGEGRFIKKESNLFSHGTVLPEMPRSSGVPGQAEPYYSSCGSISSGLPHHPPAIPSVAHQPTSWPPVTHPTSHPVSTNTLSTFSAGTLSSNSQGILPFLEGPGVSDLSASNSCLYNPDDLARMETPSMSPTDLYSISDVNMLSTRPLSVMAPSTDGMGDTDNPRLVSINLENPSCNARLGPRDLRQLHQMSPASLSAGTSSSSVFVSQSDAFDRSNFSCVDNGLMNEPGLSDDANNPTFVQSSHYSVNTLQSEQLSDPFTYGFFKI

For `CC(=O)CCCCn1c(=O)c2c(ncn2C)n(C)c1=O` [PTXF, 1-(5-oxohexyl)-3,7-dimethylxanthine], the c-Rel protein [1] was “significant reduction of c-Rel protein”, the “levels of p65” value [2] was “unchanged” and the “expression of Treg markers such as Foxp3, CD25 and Helios” value [3] was “significantly decreased expression”. For the same molecule, the “Foxp3 mRNA” value [4] was “unaffected”, the “expression of Cbl-b” value [4] was “up-regulated” and the “expression of Gzmb and Tgfb1” value [4] was “decreased expression”. For the same molecule, the “expression of c-Rel mRNA” value [4] was “unaffected”, the “expression of genome organizer Sat1” value [4] was “up-regulated” and the “CD44 and Ki67 expression on CD4+ Tconv TILs” value [5] was “increased”. For the same molecule, the “infiltration of total T cells and IFN-γ-producing CD4 and CD8 T-cells into the tumors” value [5] was “increase in infiltration”, the “proportion of Treg cells in tumor infiltrates” value [5] was “decrease in the proportion of Treg cells” and the “inflammatory response (activated T-cell markers and cytokines) in total tumors” value [6] was “dramatic enhancement of the inflammatory response”. For the same molecule, the “increase of Ccl22 mRNA” value ([6]; minor and non-significant) was 1.2 ×, the “tumor growth in immunodeficient background” value [7] was “no effect on tumor growth” and the “levels of p65 in T cells in vitro” value [8] was “unchanged”.
